Laboratory results published in patent US9822170B2, “Co-use of a clusterin inhibitor with an EGFR inhibitor to treat cancer” (ALETHIA BIOTHERAPEUTICS INC., priority 2012, dated 2017).

B1: 16B5: murine anti-clusterin (sCLU) antibody that blocks EMT; VL SEQ ID NO.:25, VH SEQ ID NO.:29 (antibody, V domains shown)
VH: EVQLQQSGAELVKPGASVRLSCTTSGFNIKDIYMHWVKQRPEQGLEWIGRIDPAYGNTKYDPKFQGKATITADTSSNTAYLQLSSLTSEDTAVYYCARRYDTAMDYWGQGTSVTVSS
VL: DIVMSQSPSSLAVSAGEKVTMSCKSSQSLLNSRTRKNYLAWYQQKPGQSPKLLIYWASTRESGVPDRFTGSGSGTDFTLTISSVQAEDLAVYYCKQSYNLWTFGGGTKLEFK
modifications: murine 16B5 heavy chain variable region; murine 16B5 light chain variable region

Tests used:
H1299 cells = assay: CellTiter-Glo Luminescent Cell Viability Assay; type: cell-based, human
Method: (§1) Following this induction, the cells were treated with erlotinib (20 μM) for 96 h and the number of cells was determined using the CellTiter-Glo® Luminescent Cell Viability Assay (Promega, Madison, Wis.). As a control, additional cells were not induced with sCLU or TGFβ. […] We also compared the response to erlotinib in cells that were induced to undergo an EMT with either sCLU or TGFβ.

H460 cells = assay: CellTiter-Glo Luminescent Cell Viability Assay; type: cell-based, human; conditions: sCLU 0.25 μg/ml or TGFβ 2 nM for 48 h, then erlotinib 20 μM for 96 h
Method: as §1

cancer cells = conditions: incubated with cancer cells; WO2007/030930, WO2011/063523; cited from earlier work

Molecule | responsiveness to erlotinib after stimulation of EMT (H1299 cells; H1299 cells, sCLU 0.25 μg/ml or TGFβ 2 nM for 48 h, then erlotinib 20 μM for 96 h) | sensitivity of the cells to erlotinib (H1299 cells; H1299 compared with H460 cells, erlotinib 20 μM for 96 h) | responsiveness to erlotinib after stimulation of EMT (H460 cells) | blocking of EMT (maintenance of membrane E-cadherin expression) (cancer cells)
C#Cc1cccc(Nc2ncnc3cc(OCCOC)c(OCCOC)cc23)c1 [erlotinib] | did not change the responsiveness | H1299 cells were more sensitive to erlotinib than the H460 cells | did not change the responsiveness | –
B1 | – | – | – | could block EMT
